We go through seven compounds from patent publication US20090305239A1, “Methods and compositions for determing a level of biologically active serum paraoxonase” (priority 2005, published 2009).

For test [1], the system named is recombinant PON1 variant rePON1-G2E6. Particulars: substrate hydrolysis by rePON1; 50 mM Tris pH 8.0, 1 mM CaCl2, 50 mM NaCl; DTNB detection.
Experimental: The kinetic parameters of enzymatic hydrolysis of the three TXBLs by PON1 were determined by detecting the released thiol moiety with DTNB.
Kinetics were performed with recombinant PON1 variant rePON1-G2E6 expressed in fusion with a thioredoxin and 6×His tag, and purified as described^[19].
Kinetic measurements with DTNB—The rates of enzymatic hydrolyses of the thioalkyl-substituted lactones were determined in 50 mM Tris pH 8.0 with 1 mM CaCl2 and 50 mM NaCl (activity buffer). The enzyme stocks were kept in activity buffer containing 0.1% tergitol, and the enzyme concentration used was 8.375×10^−9 M. Stocks of 100-400 mM of substrates were prepared in acetonitrile and diluted with the reaction buffer immediately before initializing the reaction. […] The substrate concentrations were varied in the range of 0.3×KM up to (2-3)×KM. The co-solvent percentage was kept at 1% in all reactions. The DTNB dye (Ellman's reagent, 5′,5-dithio bis(2-nitrobenzoic acid) was used from 100 mM stock in DMSO, at a final concentration of 0.5 mM. An ε412 nm=7000 OD/M was used to calculate the activity. Product formation was monitored spectrophotometrically at 412 nm in 200 μl reaction volumes, using 96-well plates, on a microtiter plate reader (PowerWave HT™ Microplate Scanning Spectrophotometer; optical length ˜0.5 cm). Initial velocities (v0) were determined at eight different concentrations for each substrate. v0 values were corrected for the background rate of spontaneous hydrolysis in the absence of enzyme. Kinetic parameters (kcat, KM, kcat/KM) were obtained by fitting the data to the Michaelis-Menten equation [v0=kcat[E]0[S]0/([S]0+KM)], using the program Kaleidagraph 5.0.
Test [2] concerns PON3. The experiment in a line: Lactonase activity of PON3 in purified enzyme samples and crude cell lysates. The test is classed as biochemical. The following applies: data not shown.
Test [3] concerns rePON1. The following applies: rePON1 with 5-alkyl butyrolactones, taken from Ref. 4; cited from earlier work.
Test [4] deals with T1, PON1 in human sera (Homo sapiens, UniProt P27169). The following applies: samples #1 and #2.
T1 sequence (P27169 whole entry): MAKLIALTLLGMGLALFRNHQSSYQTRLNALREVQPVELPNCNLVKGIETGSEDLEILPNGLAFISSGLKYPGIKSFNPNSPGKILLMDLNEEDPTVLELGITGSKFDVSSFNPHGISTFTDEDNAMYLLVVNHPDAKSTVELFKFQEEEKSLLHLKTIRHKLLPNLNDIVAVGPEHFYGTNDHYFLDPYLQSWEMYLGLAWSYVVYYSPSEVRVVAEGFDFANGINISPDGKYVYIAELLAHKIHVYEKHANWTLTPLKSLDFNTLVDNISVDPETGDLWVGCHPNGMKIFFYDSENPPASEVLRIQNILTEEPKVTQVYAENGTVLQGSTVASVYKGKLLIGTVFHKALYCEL
Experimental: (§1) Hydrolysis of phenyl acetate was monitored directly by absorbance at 270 nm (FIG. 2b).
(§2) The reaction mixtures of phenyl acetate contained 1 mM phenyl acetate from 500 mM stock in methanol. All the reaction mixtures contained final 1% DMSO. […] The serum was incubated with the inhibitors for 5-10 minutes before the initiation of the reaction.
(§3) In parallel, we the PON1 activity was determined with phenyl acetate, which is routinely used as a probe for PON1 levels in the serum.
Test [5] addresses T1, PON1 in human sera. The experiment in a line: Serum lactonase activity with TBBL (DTNB, 412 nm), with and without inhibitors. In kind it is biochemical.
Experimental: as §1, §2, §3
The subject of test [6] is E. coli cells expressing recombinant PON1 (rePON1). The experiment in a line: Detection of PON1 lactonase activity in living cells by FACS in w/o/w emulsions with TBBL and CPM. In kind it is cell-based. The following applies: TBBL with thiol-detecting dye CPM, emission at 530 nm, single E. coli cells in w/o/w emulsion. From the text: Shown are representative histograms of the fluorescent emission at 530 nm (the thiol-CPM adduct) for single cells expressing GFP and PON1 (white), and control cells with GFP only (grey).
PON1 activity was also detected in living cells, using FACS (fluorescence-activated cell sorter) and emulsion droplets that compartmentalize the cells together with the products of the enzymatic activity^[15, 16]. […] The w/o emulsion was then re-emulsified, to generate the w/o/w double emulsion with a continuous water phase that is amenable to FACS^[15]. The FACS triggering threshold was set for the emission of GFP, and an appropriate gate was chosen corresponding to the level of emission of single E. coli cells^[16]. […] A clear difference (>20-fold in mean fluorescence) was observed relative to cells bearing no rePON1

In test [7] the target is T1, PON1 in human sera. The experiment in a line: biochemical. Particulars: read-out: Serum activity with 1 mM phenyl acetate, 100 μM HQ (% of uninhibited activity), human serum 1:400 pre-incubated with 100 μM HQ; samples #1 and #2.
Experimental: as §1, §2, §3
The mark [8] stands for this setting: human serum 1:400 pre-incubated with 5 mM EDTA.

Where “and” joins values, the source holds several entries; their conditions need not be identical. Equal values may be shown once.

Regarding `CCSC1CCC(=O)O1` (stereo not drawn) [TEBL, 5-ethylsulfanyl-dihydro-furan-2-one], in test [1], the Michaelis-Menten constant (Km) is 360 ± 50 µM and the kcat worked out at 161 ± 10 s⁻¹. In test [2], the “lactonase activity of PON3 assayed with the substrate” value was “could be assayed”.

Turning to `CCCCCCSC1CCC(=O)O1` (stereo not drawn) [THBL, 5-hexylsulfanyl-dihydro-furan-2-one], in test [1], the Km is 350 ± 30 µM and the kcat was 52.4 ± 2.6 s⁻¹.

With `CCCCCCCC1CCC(=O)O1` (stereo not drawn) [γ-undecanoic lactone], in test [3], the Km is 600 ± 70 µM and the kcat is 62 ± 2 s⁻¹.

Turning to `O=C(O)CN(CCN(CC(=O)O)CC(=O)O)CC(=O)O` [EDTA], in test [4] (setting [8]), the “Serum activity with 1 mM phenyl acetate, 5 mM EDTA” value was about 0 μM product/min and the “Serum activity with 1 mM phenyl acetate, 5 mM EDTA (% of uninhibited activity)” value is “(0%)”. In addition, the “Serum activity with 0.5 mM TBBL, 5 mM EDTA” value in test [5] (human serum 1:400 pre-incubated with 5 mM EDTA, samples #1 and #2) was 0.04 ± 0.01 μM product/min and 0.06 ± 0.01 μM product/min. The “inhibition rates by EDTA” value in test [5] (serum lactonase (TBBL) and aryl esterase (phenyl acetate) activities, 5 mM EDTA) is on record as over 99%.

For the compound `CCCCCC1CCC(=O)O1` (stereo not drawn) [γ-nonanoic lactone], in test [3], the Km is 390 ± 30 µM and the turnover number (kcat) is 31 ± 2 s⁻¹.

Consider `CCCCSC1CCC(=O)O1` (stereo not drawn) [TBBL, 5-butylsulfanyl-dihydro-furan-2-one], for which, in test [1], the Km was 270 ± 40 µM and the kcat came to 116 ± 4 s⁻¹. For the same compound, the “lactonase activity of PON3 assayed with the substrate” value in test [2] is “could be assayed”. For the same compound, the “difference in mean fluorescence relative to cells bearing no rePON1” value in test [6] is over 20 fold.

`Oc1ccc2ccccc2n1` [HQ, 2-hydroxyquinoline]: in test [4] (human serum 1:400 pre-incubated with 100 μM HQ), the “Serum activity with 1 mM phenyl acetate, 100 μM HQ” value is 5.9 ± 0.4 μM product/min and 3.9 ± 0.3 μM product/min. Besides, in test [5] (human serum 1:400 pre-incubated with 100 μM HQ, samples #1 and #2), the “Serum activity with 0.5 mM TBBL, 100 μM HQ” value is 2.09 ± 0.04 μM product/min and 1.80 ± 0.01 μM product/min. In addition, the activity at 100 µM was 8.6% in test [5] (read-out: Serum activity with 0.5 mM TBBL, 100 μM HQ (% of uninhibited activity), human serum 1:400 pre-incubated with 100 μM HQ, samples #1 and #2); 4.9% in test [7].
